Measurements reported in patent publication US12473326B2, “Crystalline forms of dexamethasone dimers and uses thereof” (Ripple Therapeutics Corporation, priority 2019, dated 2025).

Experiments:
[1] = Drug release from heat-molded glassy pellets in PBS, 1% FBS in PBS or 100% FBS at 37° C. (HPLC); assay type: physicochemical; conditions: heat-molded pellets in the glassy state, about 1 mm x 1 mm
Description: Heat-molded pellets from Compound 1 (˜1 mm×1 mm) were then placed in 20 mL glass vials and 2 mL of release buffer (either 100% phosphate buffered saline (PBS), 1% fetal bovine serum (FBS) in PBS, or 100% FBS) was added. Samples were incubated at 37° C. on a shaker rotating at 115 rpm. After 1 day, 3 days, 7 days, and subsequently in alternating 3 and 4 day intervals (i.e., 1, 3, 7, 10, 14 days etc.), release buffer was sampled directly (PBS) or syringe filtered, proteins were precipitated with acetonitrile, and drug release products were extracted. The samples were analyzed by high performance liquid chromatography (HPLC) to quantify drug products.

[2] = Drug release from crystalline powders suspended in PBS with 50% FBS, quantified by HPLC over time; assay type: physicochemical; conditions: crystalline powder suspended in PBS with 50% FBS, FIG. 12
Source text: FIG. 12 is a graph depicting the release of Compound 1 from crystalline powders suspended in phosphate buffered saline (PBS) with 50% fetal bovine serum (FBS). The release of Compound 1 from the different crystalline forms was quantified by HPLC over time as described in Example 10.
Form I/II (mixture) and Form IV of Compound 1 were formed from acetonitrile and ethanol respectively. The crystalline powders were suspended in phosphate buffered saline (PBS) with 50% fetal bovine serum (FBS) and drug release from the different forms was quantified by HPLC over time (see FIG. 12).

[3] = Solubility in 90% acetonitrile-10% water as a function of temperature; assay type: physicochemical; conditions: Form II vs Form IV, FIG. 15
Description: FIG. 15 is a graph depicting the difference in the solubilities (mg/mi) of Form II and Form IV in […] as a function of temperature.
The solubility of Form II and Form IV were measured in 90% acetonitrile-10% water as a function of temperature (see FIG. 15).

[4] = assay type: physicochemical; conditions: for thermodynamic stability of polymorph: solid form, comparison among observed polymorphs; for interconversion into other polymorphs: under the conditions tested
Source text: Thus, Form IV in solid form has the advantage of longer-term shelf life without interconversion into another crystalline form.

[5] = Solubility in organic solvents; assay type: physicochemical
Source text: This observation has implications for coating applications as making high concentration coating solutions (e.g., for coating a surface by dip coating or spray coating a solution of Compound 1 onto the surface) will be much more practical from Form II than from Form IV.

[6] = Differential scanning calorimetry (behaviour on heating); assay type: physicochemical; conditions: DSC, FIG. 14

| Compound | drug release from the crystalline form over time [2] | thermodynamic stability of polymorph [4] | interconversion into other polymorphs [4] | also measured |
| --- | --- | --- | --- | --- |
| C[C@@H]1C[C@H]2[C@@H]3CCC4=CC(=O)C=C[C@]4(C)[C@@]3(F)[C@@H](O)C[C@]2(C)[C@@]1(O)C(=O)COC(=O)OCCOCCOCCOC(=O)OCC(=O)[C@@]1(O)[C@H](C)C[C@H]2[C@@H]3CCC4=CC(=O)C=C[C@]4(C)[C@@]3(F)[C@@H](O)C[C@@]21C [Compound 1, dexamethasone-triethylene glycol-dexamethasone] | – | – | – | mechanism of drug release from pellet [1]: Release Drug Through Surface Erosion from an Intact Pellet |
| C[C@@H]1C[C@H]2[C@@H]3CCC4=CC(=O)C=C[C@]4(C)[C@@]3(F)[C@@H](O)C[C@]2(C)[C@@]1(O)C(=O)COC(=O)OCCOCCOCCOC(=O)OCC(=O)[C@@]1(O)[C@H](C)C[C@H]2[C@@H]3CCC4=CC(=O)C=C[C@]4(C)[C@@]3(F)[C@@H](O)C[C@@]21C [Form I/II] | faster release compared to Form IV | – | – | – |
| C[C@@H]1C[C@H]2[C@@H]3CCC4=CC(=O)C=C[C@]4(C)[C@@]3(F)[C@@H](O)C[C@]2(C)[C@@]1(O)C(=O)COC(=O)OCCOCCOCCOC(=O)OCC(=O)[C@@]1(O)[C@H](C)C[C@H]2[C@@H]3CCC4=CC(=O)C=C[C@]4(C)[C@@]3(F)[C@@H](O)C[C@@]21C [Form II] | – | high thermodynamic stability | not observed to convert to Form IV | solubility as a function of temperature [3]: higher solubility; solubility in organic solvents, comparison in words ([5]; Form II vs Form IV): much more soluble in organic solvents than Form IV |
| C[C@@H]1C[C@H]2[C@@H]3CCC4=CC(=O)C=C[C@]4(C)[C@@]3(F)[C@@H](O)C[C@]2(C)[C@@]1(O)C(=O)COC(=O)OCCOCCOCCOC(=O)OCC(=O)[C@@]1(O)[C@H](C)C[C@H]2[C@@H]3CCC4=CC(=O)C=C[C@]4(C)[C@@]3(F)[C@@H](O)C[C@@]21C [Form IV] | slower dissolution | most thermodynamically stable polymorph observed | not seen to convert into any other polymorphs | solubility in organic solvents relative to Form II ([5]; acetonitrile, ethanol, tetrahydrofuran, 2-methyl tetrahydrofuran, isobutyl acetate, acetone, butyl acetate, ethyl acetate, isopropyl acetate, methanol): ca. 10 fold; behaviour on heating (thermal stability) [6]: decomposes on heating |
| C[C@@H]1C[C@H]2[C@@H]3CCC4=CC(=O)C=C[C@]4(C)[C@@]3(F)[C@@H](O)C[C@]2(C)[C@@]1(O)C(=O)COC(=O)OCCOCCOCCOC(=O)OCC(=O)[C@@]1(O)[C@H](C)C[C@H]2[C@@H]3CCC4=CC(=O)C=C[C@]4(C)[C@@]3(F)[C@@H](O)C[C@@]21C [Form VIII] | – | – | – | conversion to another form by PXRD ([4]; after 14 days at room temperature and/or cooling at 0° C. for 14 days): conversion to Form IV |
